Laboratory results: ChEMBL document CHEMBL4414578, “Design and synthesis of pentacyclic triterpene conjugates and their use in medicinal research” (Eur J Med Chem, 2019)

Experiments:
[1] = system: Human immunodeficiency virus 1; experiment: Antiviral activity against HIV-1 NL4-3 infected in human MT-4 cells; format: functional, organism-based; settings: Human immunodeficiency virus 1, NL4-3, MT4
MCF7 = experiment: Antitumor activity against human MCF7 cells by SRB assay; format: functional, cell-based
A549 = experiment: Antitumor activity against human A549 cells by SRB assay; format: functional, cell-based
8505C = experiment: Antitumor activity against human 8505C cells by SRB assay; format: functional, cell-based
518A2 = experiment: Antitumor activity against human 518A2 cells by SRB assay; format: functional, cell-based
A2780 = experiment: Antitumor activity against human A2780 cells by SRB assay; format: functional, cell-based
P815 = experiment: Cytotoxicity against mouse P815 cells assessed as reduction in cell viability after 48 hrs by MTT assay; format: functional, cell-based; settings: P815, 48 h
Ehrlich = experiment: Cytotoxicity against mouse Ehrlich carcinoma cells assessed as reduction in cell viability after 48 hrs by MTT assay; format: functional, cell-based
CCRF-CEM = experiment: Cytotoxicity against human CCRF-CEM cells assessed as reduction in cell viability; format: functional, cell-based
HT-29 = experiment: Cytotoxicity against human HT-29 cells assessed as reduction in cell viability after 72 hrs by MTT assay; format: functional, cell-based; settings: HT-29, 72 h
DU-145 = experiment: Cytotoxicity against human DU145 cells assessed as reduction in cell viability after 72 hrs by MTT assay; format: functional, cell-based; settings: DU-145, 72 h
L132 = experiment: Cytotoxicity against human L-132 cells assessed as reduction in cell viability after 72 hrs by MTT assay; format: functional, cell-based; settings: L132, 72 h
PA-1 = experiment: Cytotoxicity against human PA1 cells assessed as reduction in cell viability after 72 hrs by MTT assay; format: functional, cell-based; settings: PA-1, 72 h
Leishmania infantum = experiment: Antileishmanial activity against Leishmania infantum promastigotes after 2 to 24 hrs by Giemsa staining-based microscopic analysis; format: functional, organism-based
Plasmodium falciparum = experiment: Antimalarial activity against chloroquine-sensitive Plasmodium falciparum 3D7 by flow cytometry analysis; format: functional, organism-based
HEK-293T = experiment: Cytotoxicity against HEK293T cells assessed as reduction in cell viability; format: cell-based; settings: Homo sapiens
[2] = Selectivity index, ratio of IC50 for HEK293T cells tobIC50 for chloroquine-sensitive Plasmodium falciparum 3D7; format: toxicity; settings: human, read-out: Ratio IC50
[3] = system: Human immunodeficiency virus 1; experiment: Antiviral activity against HIV-1; format: functional, organism-based
[4] = system: Human immunodeficiency virus 1; experiment: Antiviral activity against HIV-1 3B; format: functional, organism-based; settings: Human immunodeficiency virus 1, 3B

C=C(C)[C@@H]1CC[C@]2(C(=O)OCc3cn([C@H]4C[C@H](n5cc(C)c(=O)[nH]c5=O)O[C@@H]4CO)nn3)CC[C@]3(C)[C@H](CC[C@@H]4[C@@]5(C)CC[C@H](OC(=O)CC(C)(C)C(=O)O)C(C)(C)[C@@H]5CC[C@]43C)[C@@H]12
EC50 [1]: 100 nM

C=C(C)[C@@H]1CC[C@]2(C(=O)NCCNCCN)CC[C@]3(C)[C@H](CC[C@@H]4[C@@]5(C)CC[C@H](OC(C)=O)C(C)(C)[C@@H]5CC[C@]43C)[C@@H]12
IC50 (MCF7): 1400 to 2240 nM | IC50 (A549): 1400 to 2240 nM | IC50 (8505C): 1400 to 2240 nM | IC50 (518A2): 1400 to 2240 nM | IC50 (A2780): 1400 to 2240 nM

CC(=O)O[C@H]1C(CCC[P+](c2ccccc2)(c2ccccc2)c2ccccc2)C[C@]2(C)[C@H]3CC[C@@H]4[C@H]5[C@H](C(C)C)CC[C@]5(C(=O)O)CC[C@@]4(C)[C@]3(C)CC[C@H]2C1(C)C (some centres undefined)
IC50 (P815): 1100 to 4700 nM | IC50 (Ehrlich): 1100 to 4700 nM

C=C(/C=N/N=C/c1ccccn1)[C@@H]1CC[C@]2(C(=O)O)CC[C@]3(C)[C@H](CC[C@@H]4[C@@]5(C)CC[C@H](O)C(C)(C)[C@@H]5CC[C@]43C)[C@@H]12
IC50 (CCRF-CEM): 3800 to 4800 nM

C=C(C)[C@@H]1CC[C@]2(C(=O)O)CC[C@]3(C)[C@H](CC[C@@H]4[C@@]5(C)CC/C(=N\Nc6ccccc6)C(C)(C)[C@@H]5CC[C@]43C)[C@@H]12
IC50 (HT-29): 1000 to 4000 nM | IC50 (DU-145): 1000 to 4000 nM | IC50 (L132): 1000 to 4000 nM | IC50 (PA-1): 1000 to 4000 nM

C=C(C)[C@@H]1CC[C@]2(C(=O)NCCN)CC[C@]3(C)[C@H](CC[C@@H]4[C@@]5(C)CC[C@H](O)C(C)(C)[C@@H]5CC[C@]43C)[C@@H]12
IC50 (CCRF-CEM): 700 nM

C=C(C)[C@@H]1CC[C@]2(C(=O)O)CC[C@]3(C)[C@H](CC[C@@H]4[C@@]5(C)CC/C(=N\NC(C)=O)C(C)(C)[C@@H]5CC[C@]43C)[C@@H]12
IC50 (HT-29): 1000 to 4000 nM | IC50 (DU-145): 1000 to 4000 nM | IC50 (L132): 1000 to 4000 nM | IC50 (PA-1): 1000 to 4000 nM

C=C(CC=O)[C@@H]1CC[C@]2(COC(=O)n3ccnc3)CC[C@]3(C)[C@H](CC[C@@H]4[C@@]5(C)CC[C@H](O)C(C)(C)[C@@H]5CC[C@]43C)[C@@H]12
IC50 (Leishmania infantum): 51000 nM

C=C(/C=N/N=C/c1ccccc1[N+](=O)[O-])[C@@H]1CC[C@]2(C(=O)O)CC[C@]3(C)[C@H](CC[C@@H]4[C@@]5(C)CC[C@H](O)C(C)(C)[C@@H]5CC[C@]43C)[C@@H]12
IC50 (CCRF-CEM): 3800 to 4800 nM

C=C(C)[C@@H]1CC[C@]2(C(=O)N3CCNCC3)CC[C@]3(C)[C@H](CC[C@@H]4[C@@]5(C)CC[C@H](O)C(C)(C)[C@@H]5CC[C@]43C)[C@@H]12
IC50 (CCRF-CEM): 800 nM

C=C(C)[C@@H]1CC[C@]2(C(=O)O)CC[C@]3(C)[C@H](CC[C@@H]4[C@@]5(C)CC/C(=N\Nc6ccc(F)cc6)C(C)(C)[C@@H]5CC[C@]43C)[C@@H]12
IC50 (HT-29): 1000 to 4000 nM | IC50 (DU-145): 1000 to 4000 nM | IC50 (L132): 1000 to 4000 nM | IC50 (PA-1): 1000 to 4000 nM

CC(=O)O[C@H]1C(CCC[P+](c2ccccc2)(c2ccccc2)c2ccccc2)C[C@]2(C)[C@H]3CC[C@@H]4[C@H]5[C@H](C(C)C)CC[C@]5(C(=O)OCc5ccccc5)CC[C@@]4(C)[C@]3(C)CC[C@H]2C1(C)C (some centres undefined)
IC50 (P815): 1100 to 4700 nM | IC50 (Ehrlich): 1100 to 4700 nM

COC(=O)[C@]12CC[C@@H](C(C)C)[C@@H]1[C@H]1CC[C@@H]3[C@@]4(C)CC(CCC[P+](c5ccccc5)(c5ccccc5)c5ccccc5)[C@@H](OC(C)=O)C(C)(C)[C@@H]4CC[C@@]3(C)[C@]1(C)CC2 (some centres undefined)
IC50 (P815): 1100 to 4700 nM | IC50 (Ehrlich): 1100 to 4700 nM

C=C(/C=N/N=C/c1ccccc1O)[C@@H]1CC[C@]2(C(=O)O)CC[C@]3(C)[C@H](CC[C@@H]4[C@@]5(C)CC[C@H](O)C(C)(C)[C@@H]5CC[C@]43C)[C@@H]12
IC50 (CCRF-CEM): 3800 to 4800 nM

C=C(C)[C@@H]1CC[C@]2(C(=O)NCCCN3CCN(CCCN)CC3)CC[C@]3(C)[C@H](CC[C@@H]4[C@@]5(C)CC[C@H](OC(C)=O)C(C)(C)[C@@H]5CC[C@]43C)[C@@H]12
IC50 (Plasmodium falciparum): 220 nM | IC50 (HEK-293T): 4000 nM | selectivity ratio [2]: 23

C=C(C)[C@@H]1CC[C@]2(C(=O)OCCCCCCCC(=O)N[C@@H](CC(C)C)[C@@H](O)CC(=O)O)CC[C@]3(C)[C@H](CC[C@@H]4[C@@]5(C)CC[C@H](O)C(C)(C)[C@@H]5CC[C@]43C)[C@@H]12
IC50 [3]: 50 nM

COC(=O)[C@]12CC[C@@H](C(C)C)[C@@H]1[C@H]1CC[C@@H]3[C@@]4(C)CC(CCC[P+](c5ccccc5)(c5ccccc5)c5ccccc5)[C@H](OC(C)=O)C(C)(C)[C@@H]4CC[C@@]3(C)[C@]1(C)CC2 (some centres undefined)
IC50 (P815): 1100 to 4700 nM | IC50 (Ehrlich): 1100 to 4700 nM

C=C(C)[C@@H]1CC[C@]2(C(=O)O)CC[C@]3(C)[C@H](CC[C@@H]4[C@@]5(C)CC/C(=N\Nc6c(Cl)cc(Cl)cc6Cl)C(C)(C)[C@@H]5CC[C@]43C)[C@@H]12
IC50 (HT-29): 1000 to 4000 nM | IC50 (DU-145): 1000 to 4000 nM | IC50 (L132): 1000 to 4000 nM | IC50 (PA-1): 1000 to 4000 nM

C=C(CO)[C@@H]1CC[C@]2(C(=O)OCCCCCCCCCCC(=O)O)CC[C@]3(C)[C@H](CC[C@@H]4[C@@]5(C)CC[C@H](O)C(C)(C)[C@@H]5CC[C@]43C)[C@@H]12
IC50 [3]: 50 nM

C=C(C)[C@@H]1CC[C@]2(C(=O)n3ccnc3)CC[C@]3(C)[C@H](CC[C@@H]4[C@@]5(C)C=C(OC(=O)n6ccnc6)C(=O)C(C)(C)[C@@H]5CC[C@]43C)[C@@H]12
IC50 (Leishmania infantum): 26000 nM

C=C(C)[C@@H]1CC[C@]2(C(=O)O)CC[C@]3(C)[C@H](CC[C@@H]4[C@@]5(C)CC[C@H](O)C(C)(C)[C@@H]5CC[C@]43C)[C@@H]12 [BETULINIC ACID]
IC50 (P815): 41000 nM | IC50 (MCF7): 330 to 1340 nM | IC50 (A549): 330 to 1340 nM | IC50 (8505C): 330 to 1340 nM | IC50 (518A2): 330 to 1340 nM | IC50 (A2780): 330 to 1340 nM | IC50 (Ehrlich): 54000 nM

CCCCCCCCCCCCCCCCOP(=O)([O-])OCC[N+](C)(C)C [MILTEFOSINE]
IC50 (Leishmania infantum): 6000 nM | EC50 [4]: 10 to 330 nM

CC1(C)CC[C@]2(C(=O)O)CC[C@]3(C)C(=CC[C@@H]4[C@@]5(C)CC[C@H](O)C(C)(C)[C@@H]5CC[C@]43C)[C@@H]2C1 [OLEANOLIC_ACID]
EC50 [4]: 10 to 330 nM

C[C@H]1[C@H](C)CC[C@]2(C(=O)O)CC[C@]3(C)C(=CC[C@@H]4[C@@]5(C)CC[C@H](O)C(C)(C)[C@@H]5CC[C@]43C)[C@H]12 [URSOLIC ACID]
EC50 [4]: 10 to 330 nM

Cc1cn([C@H]2C[C@H](N=[N+]=[N-])[C@@H](CO)O2)c(=O)[nH]c1=O [ZIDOVUDINE]
EC50 [1]: 100 nM
